Reference: patent publication US6130250A, “Veterinary use of a pleuromutilin derivative” (priority 1996, dated 2000)
“Also recorded” adds a separate entry of the source. Where a name gives a salt, the structure may show the parent alone.

Experiments:
M. hyopneumoniae [1] = test: Development of resistance (habituation study), MIC before and after passages; assay type: cell-based, Mycoplasma hyopneumoniae; details: for Resistance increase: up to P10/P11
Procedure: Mycoplasma hyopneumoniae reference strain NCTC 10110 (obtained from the National Collection of Type Cultures, London, UK) and a recent field isolate (MEVT G23), are grown aerobically at 36° C. in Mycoplasma glucose broth containing phenol red until an acid colour change occurs. After addition of sterile glycerol (5% v/v) the cultures are dispensed in 1 ml aliquots and frozen at -70° C. These cultures are used to initiate further broth cultures which are titrated to obtain the number of colour changing units (ccu) in microtitre plates after incubation (36° C.). Replication allows challenge of antibiotic dilutions with predetermined numbers of ccu in minimal inhibitory concentration (MIC) tests and in the primary passage in habituation studies.
A commercially available medium (Mycopiasma Experience Ltd.) containing glucose and phenol red (MEGB) is used at pH 7.6.
Stock test compound solutions are prepared at 1000 μg/ml in deionized water. After vortexing, the solutions are sterilized by filtration through 0.2μ pore size membrane filters (Sartorius Minisart, N). For use in the MIC tests the stock solutions are diluted in mycoplasma broth to double the final concentrations required. In habituation studies the stock solutions are dispensed in 1 ml aliquots and frozen at -20° C. These are thawed and used at 5 day-7 day intervals to prepare ranges of concentrations of drug (doubling series) in MEGB, in 1.9 ml aliquots, covering the MICs against both strains of M. hyopneumoniae. Oxytetracycline hydrochloride is prepared fresh on each occasion. The dilution ranges are gradually changed from passage to passage to allow for the development of resistance in the mycoplasmas.
MIC tests are carried out by the method of Tanner & Wu, Avian Diseases 36 (1992) 714-717 before carrying out the habituation study (below) and after the 10th passages 0.1 ml aliquots of the compound dilution are mixed with 0.1 ml aliquots of the challenge inocula, containing between 10^3 and 10^5 colour changing units (ccu) per ml, in microtitre wells. Each microtitre plate contains uninoculated medium, medium at pH 6.8 (end-point-control) and drug-free inoculated challenge controls. All plates are sealed and incubated aerobically at 36° C. MICs are recorded when the colour change in the challenge control wells match the pH 6.8 control (orange-yellow). The MIC is the lowest concentration to show no colour change.
Habituation study: In the primary passage experiment, 1.9 ml volumes of antibiotic solutions at concentrations covering the MIC of the M. hyopneumoniae strain under test, are inoculated with 0.1 ml of broth culture containing between 10^3 ccu/ml to 10^5 ccu/ml. A growth control consisting of drug-free broth inoculated with M. hyopneumoniae and an uninoculated medium control are included in each passage experiment. After 7 days incubation (36° C.) the two highest concentrations of drug-containing broth showing an acid colour change are pooled and used to inoculate a fresh series of drug dilutions in mycoplasma broth (0.1 ml culture into 1.9 ml drug-containing broth). This process is repeated every 5-7 days for up to 10 passages. When the mycoplasma strains become resistant to particular antibiotics, or at the 10th passage, each strain is grown once more in drug-containing broth and the MICs determined.

M. hyopneumoniae [2] = test: Prevention of experimentally-induced enzootic pneumonia in vivo (Trials 1-3); set-up: species or system pigs
Procedure: An experimental model of enzootic pneumonia, using passaged lung material originally derived by infection of gnotobiotic pigs with M. hyopneumoniae,was employed to assess the potential of valnemulin for prevention of the disease. Three trials were performed: Trials 1 and 2 were dose titration studies of the novel compound using a standard challenge strain of M. hyopneumoniae and in Trial 3, the efficacy of the compound at 200 ppm in feed against a second challenge strain was assessed. Large white Landrace male pigs, 6-7 weeks of age, from stock free of infection with M. hyopneumoniae are used. The challenge materials are pneumonic lungs containing M. hyopneumoniae given as a homogenate intranasally on three successive days. […] The challenge material was originally derived by infection of gnotobiotic pigs with M. hyopneumoniae and subsequent passage in SPF (Specific Pathogen-free) pigs and had been stored below -70° C.
Trial 1: Medication with valnemulin hydrochloride by stomach tube (gavage) once a day at 0 (control), 2.5, 5, 7.5 or 10 mg/kg body weight per day. Six pigs per group.
Trial 2: Medication with valnemulin hydrochloride in feed at 0, 100, 200, 300 or 400 ppm (equivalent to 0, 5, 10, 15 and 20 mg/kg/day). Six pigs per group.
Trial 3: Medication with valnemulin hydrochloride in feed at 0 or 200 ppm (equivalent to 0 and 10 mg/kg/day). Eight pigs per group. Medication was given from the first day of challenge infection until post-mortem examination performed approximately 3 weeks after challenge infection. Disease was assessed by quantifying lung lesions [Cambridge lung lesion scoring system (Goodwin, R. F. W. and Whittlestone, P., J. Hyg. 69 [1971] 391-397), in which the score is an approximation of percent of lung affected with pneumonia], by estimation of lung-bodyweight ratio and by isolation of M. hyopneumoniae from lungs.

[3] = Trial 2, feed, 100 ppm (5 mg/kg)
[4] = Trial 2, feed, 200 ppm (10 mg/kg)
[5] = Trial 2, feed, 300 ppm (15 mg/kg)
[6] = Trial 2, feed, 400 ppm (20 mg/kg)
[7] = Trial 3, feed, 200 ppm (10 mg/kg)

SMILES: C=C[C@]1(C)C[C@@H](OC(=O)CSC(C)(C)CNC(=O)[C@H](N)C(C)C)[C@]2(C)[C@H](C)CC[C@]3(CCC(=O)[C@H]32)[C@@H](C)[C@@H]1O [valnemulin hydrochloride, 14-O-[1-[(R)-2-amino-3-methylbutyrylamino]-2-methylpropan-2-ylthioacetyl]mutilin]
- resistance development in words (M. hyopneumoniae [1]; M. hyopneumoniae strains, in vitro passages): resistance development was minimal; also recorded: does not induce significant resistance to itself
- MIC (M. hyopneumoniae [1]; Mesomycoplasma hyopneumoniae, NCTC10110, read-out: Post-passage MIC up to P10/P11): 5 ng/mL
- Resistance increase (M. hyopneumoniae [1]; NCTC 10110): 2 fold
- activity greater than those of tylosin and oxytetracycline (M. hyopneumoniae [1]; before exposure, both strains): 50-100 told
- Resistance increase (M. hyopneumoniae [1]; field isolate): 2.5 fold
- pigs from which M. hyopneumoniae was reisolated (M. hyopneumoniae [2]; Trial 1, 2.5 mg/kg): 4 pigs
- reduction of lesions (M. hyopneumoniae [2]; Trial 1, 7.5 mg/kg): 71%
- pigs from which M. hyopneumoniae was reisolated (M. hyopneumoniae [2]; Trial 1, 10 mg/kg): 1 pigs
- reduction of lesions (M. hyopneumoniae [2]; Trial 1, 10 mg/kg): 87%
- effect on lesions in words (M. hyopneumoniae [2]; Trial 1, 2.5 and 5 mg/kg/day): somewhat less effective at reducing lesions
- Lung lesion score (M. hyopneumoniae [2]; Trial 1, gavage, 2.5 mg/kg/day): 7.7
- Lung-bodyweight ratio (M. hyopneumoniae [2]; Trial 1, gavage, 2.5 mg/kg/day): 1.21%
- Lung lesion score (M. hyopneumoniae [2]; Trial 1, gavage, 5 mg/kg/day): 11.1
- Lung-bodyweight ratio (M. hyopneumoniae [2]; Trial 1, gavage, 5 mg/kg/day): 1.31%
- Lung lesion score (M. hyopneumoniae [2]; Trial 1, gavage, 7.5 mg/kg/day): 3.8
- Lung-bodyweight ratio (M. hyopneumoniae [2]; Trial 1, gavage, 7.5 mg/kg/day): 1.21%
- Lung lesion score (M. hyopneumoniae [2]; Trial 1, gavage, 10 mg/kg/day): 1.7
- Lung-bodyweight ratio (M. hyopneumoniae [2]; Trial 1, gavage, 10 mg/kg/day): 1.08%
- pigs from which M. hyopneumoniae was reisolated (M. hyopneumoniae [2]; Trial 2, 100 ppm): 4 pigs
- reduction in lesions (M. hyopneumoniae [2]; Trial 2, 100 ppm): No reduction in lesions
- pigs from which M. hyopneumoniae was reisolated (M. hyopneumoniae [2]; Trial 2, 200 ppm): 3 pigs
- reduction of lesions (M. hyopneumoniae [2]; Trial 2, 200 ppm): 46%
- reduction of lesions (M. hyopneumoniae [2]; Trial 2, 300 ppm): 43%
- reisolation of M. hyopneumoniae (M. hyopneumoniae [2]; Trial 2, 300 ppm): not reisolated
- reduction of lesions (M. hyopneumoniae [2]; Trial 2, 400 ppm): 71%
- reisolation of M. hyopneumoniae (M. hyopneumoniae [2]; Trial 2, 400 ppm): not reisolated
- Lung lesion score (M. hyopneumoniae [2]; [3]): 25
- Lung-bodyweight ratio (M. hyopneumoniae [2]; [3]): 1.53%
- Lung lesion score (M. hyopneumoniae [2]; [4]): 12
- Lung-bodyweight ratio (M. hyopneumoniae [2]; [4]): 1.29%
- Lung lesion score (M. hyopneumoniae [2]; [5]): 12.7
- Lung-bodyweight ratio (M. hyopneumoniae [2]; [5]): 1.27%
- Lung lesion score (M. hyopneumoniae [2]; [6]): 6.3
- Lung-bodyweight ratio (M. hyopneumoniae [2]; [6]): 1.24%
- reduction of lung weights (M. hyopneumoniae [2]; Trial 2, levels down to 200 ppm): significant reductions at levels down to 200 ppm
- levels of M. hyopneumoniae at post-mortem, medicated vs unmedicated (M. hyopneumoniae [2]; Trial 3, 200 ppm): no difference in the levels of M. hyopneumoniae
- reduction of lesion scores (M. hyopneumoniae [2]; Trial 3, 200 ppm in feed): 79%
- Lung lesion score (M. hyopneumoniae [2]; [7]): 2.3
- Lung-bodyweight ratio (M. hyopneumoniae [2]; [7]): 1.21%
- prevention of experimentally-induced enzootic pneumonia (M. hyopneumoniae [2]; separate experiments, two challenge strains): effective for the prevention of experimentally-induced enzootic pneumonia
